Laboratory results published in patent US20130261178A1, “PHENOXYPROPANOL DERIVATIVES AND THEIR USE IN TREATING CARDIAC AND CARDIOVASCULAR DISEASES” (priority 2010, published 2013).
Where a name gives a salt, the structure may show the parent alone.

Experiments:
[1] = biological target: beta1-adrenoceptor (Homo sapiens, UniProt P08588); assay: 3H-CGP12177 whole-cell binding, CHO cells expressing human beta1-adrenoceptor; set-up: expressed in transfected cells; host or cells: CHO cells; conditions: 3H-CGP 12177 whole cell binding, mean ± s.e.mean; for Kd: log KD, read-out: Beta 1 Log KD (converted)
Sequence of beta1-adrenoceptor (P08588 whole entry): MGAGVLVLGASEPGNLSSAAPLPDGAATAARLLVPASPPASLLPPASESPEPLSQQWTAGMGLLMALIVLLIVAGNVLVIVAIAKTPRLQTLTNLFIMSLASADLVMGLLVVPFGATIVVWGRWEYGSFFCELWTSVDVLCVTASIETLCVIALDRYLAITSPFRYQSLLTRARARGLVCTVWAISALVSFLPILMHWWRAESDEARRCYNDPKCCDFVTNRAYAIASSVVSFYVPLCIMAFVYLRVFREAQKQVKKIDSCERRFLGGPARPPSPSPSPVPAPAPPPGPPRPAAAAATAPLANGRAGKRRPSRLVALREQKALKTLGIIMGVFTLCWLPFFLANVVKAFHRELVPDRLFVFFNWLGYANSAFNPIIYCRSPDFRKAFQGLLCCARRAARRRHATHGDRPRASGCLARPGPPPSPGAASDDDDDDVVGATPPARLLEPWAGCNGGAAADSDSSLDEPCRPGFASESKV
Source text: (§1) The selectivity of a ligand is given by the ratio of beta-1 to beta-2 KD.

[2] = biological target: T1, human beta2-adrenoceptor (Homo sapiens, UniProt P07550); assay: 3H-CGP12177 whole-cell binding, CHO cells expressing human beta2-adrenoceptor; conditions: 3H-CGP 12177 whole cell binding, mean ± s.e.mean; for Kd: log KD, read-out: Beta 2 Log KD (converted)
T1 construct: expressed in transfected cells; host or cells: CHO cells
T1 sequence (P07550 whole entry): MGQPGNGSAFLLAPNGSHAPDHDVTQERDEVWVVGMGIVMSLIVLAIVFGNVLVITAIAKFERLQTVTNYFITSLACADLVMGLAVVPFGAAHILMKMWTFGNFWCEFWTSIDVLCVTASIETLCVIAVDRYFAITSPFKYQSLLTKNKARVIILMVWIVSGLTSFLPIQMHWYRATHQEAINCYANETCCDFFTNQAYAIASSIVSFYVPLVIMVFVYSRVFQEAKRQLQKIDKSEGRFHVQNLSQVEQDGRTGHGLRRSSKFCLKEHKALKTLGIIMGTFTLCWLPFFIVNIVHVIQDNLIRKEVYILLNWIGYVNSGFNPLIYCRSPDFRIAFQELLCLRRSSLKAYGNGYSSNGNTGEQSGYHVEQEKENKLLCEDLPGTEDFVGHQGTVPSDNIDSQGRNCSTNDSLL
Source text: as §1

For `O=C(NCCNCC(O)COc1ccc(OCCOCC2CC2)cc1)Nc1ccc(OCc2ccccc2)cc1` (stereo not drawn) (hydrate or solvate) [45a], the melting point was 131 to 133 °C.

`OC(CNCCOc1cccc(Cl)c1)COc1ccc(OCCOC2CCCC2)cc1` (stereo not drawn) (hydrate or solvate) [65a] showed a melting point of 73.5 °C.

In the case of `OC(CNCCOc1ccc(-c2ccccc2)cc1)COc1ccc(OCCOC2CCCC2)cc1` (stereo not drawn) (hydrate or solvate) [65d], the melting point is reported as 154 to 155 °C.

Work on `Oc1ccc(OCCNCC(O)COc2ccc(OCCOC3CCCC3)cc2)cc1` (stereo not drawn) (hydrate or solvate) [65e] yielded a melting point of 101 to 103 °C.

For `Oc1ccc(OCCCNCC(O)COc2ccc(OCCOC3CCCC3)cc2)cc1` (stereo not drawn) (hydrate or solvate) [65f], the melting point was 136 °C.

With `CCOCCOc1ccc(OCC(O)CNCCNC(=O)Nc2ccc(OCc3ccccc3)cc2)cc1` (stereo not drawn) [45d] the Kd [1] was 91.2 nM.

`CCOCCOc1ccc(OCC(O)CNCCNC(=O)Nc2ccc(O)cc2)cc1` (stereo not drawn) [46d] gave a melting point of 96 to 98 °C, a Kd [2] greater than 100000 nM and a Kd [1] of 83.2 nM.

`CC(C)OCCOc1ccc(OCC(O)CNCCNC(=O)Nc2cccc(Cl)c2)cc1` (stereo not drawn) [46k, 1-(2-(3-(4-(2-(Isopropyloxy)ethoxy)phenoxy)-2-hydroxypropylamino)ethyl)-3-(3-chlorophenyl)urea] showed a Kd [2] of 5130 nM and a Kd [1] of 21.4 nM.

Molecule `CC(C)OCCOc1ccc(OCC(O)CNCCNC(=O)Nc2ccc(O)cc2)cc1` (stereo not drawn) [46l, 1-(2-(3-(4-(2-(Isopropyloxy)ethoxy)phenoxy)-2-hydroxypropylamino)ethyl)-3-(4-hydroxyphenyl)urea] has a Kd [2] of 15500 nM and a Kd [1] of 58.9 nM.

With `CCCOCCOc1ccc(OCC(O)CNCCNC(=O)Nc2cccc(Cl)c2)cc1` (stereo not drawn) [46m, 1-(2-(3-(4-(2-(Propyloxy)ethoxy)phenoxy)-2-hydroxypropylamino)ethyl)-3-(3-chlorophenyl)urea] the Kd [2] was 3720 nM and the Kd [1] was 16.2 nM.

Work on `CCCOCCOc1ccc(OCC(O)CNCCNC(=O)Nc2ccc(O)cc2)cc1` (stereo not drawn) [46n, 1-(2-(3-(4-(2-(Propyloxy)ethoxy)phenoxy)-2-hydroxypropylamino)ethyl)-3-(4-hydroxyphenyl)urea] yielded a Kd [2] of 13500 nM and a Kd [1] of 37.2 nM.

`O=C(NCCNCC(O)COc1ccc(OCCOC2CC2)cc1)Nc1cccc(Cl)c1` (stereo not drawn) [46o, 1-(3-Chlorophenyl)-3-(2-(3-(4-(2-cyclopropoxyethoxy)phenoxy)-2-hydroxypropylamino)ethyl)urea] showed a Kd [2] of 2950 nM and a Kd [1] of 13.8 nM.

Molecule `O=C(NCCNCC(O)COc1ccc(OCCOC2CC2)cc1)Nc1ccc(O)cc1` (stereo not drawn) [46p, 1-(2-(3-(4-(2-Cyclopropoxyethoxy)phenoxy)-2-hydroxypropylamino)ethyl)-3-(4-hydroxyphenyl)urea] has a Kd [2] of 25700 nM and a Kd [1] of 63.1 nM.

Molecule `O=C(NCCNCC(O)COc1ccc(OCCOC2CCCC2)cc1)Nc1cccc(C(=O)O)c1` (stereo not drawn) [47aa, 3-(3-(2-(3-(4-(2-(Cyclopentyloxy)ethoxy)phenoxy)-2-hydroxypropylamino)ethyl)ureido)benzoic acid hydrochloride] has a Kd [2] of 43650 ± 400 nM and a Kd [1] of 77.6 nM.

`O=C(NCCNCC(O)COc1ccc(OCCOC2CCCC2)cc1)Nc1ccc(C(=O)O)cc1` (stereo not drawn) [47bb, 4-(3-(2-(3-(4-(2-(Cyclopentyloxy)ethoxy)phenoxy)-2-hydroxypropylamino)ethyl)ureido)benzoic acid hydrochloride] gave a Kd [2] of 43700 ± 701 nM and a Kd [1] of 105 nM.

`O=C(NCCNCC(O)COc1ccc(OCCOC2CCCC2)cc1)Nc1ccc([N+](=O)[O-])cc1` (stereo not drawn) [47w, 1-(2-(3-(4-(2-(Cyclopentyloxy)ethoxy)phenoxy)-2-hydroxypropylamino)ethyl)-3-(4-nitrophenyl)urea] gave a Kd [2] of 1780 nM and a Kd [1] of 18.6 nM.

With `O=C(NCCNCC(O)COc1ccc(OCCOC2CCCC2)cc1)Nc1ccc(OCCF)cc1` (stereo not drawn) [47x, 1-(2-(3-(4-(2-(Cyclopentyloxy)ethoxy)phenoxy)-2-hydroxypropylamino)ethyl)-3-(4-(2-fluoroethoxy)phenyl)urea] the Kd [2] was 1820 nM and the Kd [1] was 17.8 nM.

Molecule `COC(=O)c1cccc(NC(=O)NCCNCC(O)COc2ccc(OCCOC3CCCC3)cc2)c1` (stereo not drawn) [47y, Methyl 3-(3-(2-(3-(4-(2-(cyclopentyloxy)ethoxy)phenoxy)-2-hydroxypropylamino)ethyl)ureido)benzoate] has a Kd [2] of 1100 nM and a Kd [1] of 12.3 nM.

Molecule `COC(=O)c1ccc(NC(=O)NCCNCC(O)COc2ccc(OCCOC3CCCC3)cc2)cc1` (stereo not drawn) [47z, Methyl 4-(3-(2-(3-(4-(2-(cyclopentyloxy)ethoxy)phenoxy)-2-hydroxypropylamino)ethyl)ureido)benzoate] has a Kd [2] of 2040 nM and a Kd [1] of 43.7 nM.

Molecule `COc1ccc(NC(=O)NCCNCC(O)COc2ccc(OCCOC3CCCC3)cc2)cc1Cl` (stereo not drawn) [54b, 1-(3-Chloro-4-methoxyphenyl)-3-(2-(3-(4-(2-(cyclopentyloxy)ethoxy)phenoxy)-2-hydroxypropylamino)ethyl)urea] has a Kd [2] of 1510 nM and a Kd [1] of 19.5 nM.

`O=C(NCCNCC(O)COc1ccc(OCCOC2CCCC2)cc1)Nc1ccc(O)c(Cl)c1` (stereo not drawn) [54c, 1-(3-Chloro-4-hydroxyphenyl)-3-(2-(3-(4-(2-(cyclopentyloxy)ethoxy)phenoxy)-2-hydroxypropylamino)ethyl)urea] gave a Kd [2] of 1020 nM and a Kd [1] of 7.24 nM.

Work on `Nc1ccccc1NC(=O)NCCNCC(O)COc1ccc(OCCOC2CCCC2)cc1` (stereo not drawn) [60a] yielded a Kd [2] of 2190 nM and a Kd [1] of 75.9 nM.

In the case of `Nc1cccc(NC(=O)NCCNCC(O)COc2ccc(OCCOC3CCCC3)cc2)c1` (stereo not drawn) [60b], the Kd [2] is reported as 4170 nM and the Kd [1] is reported as 20 nM.

With `Nc1ccc(NC(=O)NCCNCC(O)COc2ccc(OCCOC3CCCC3)cc2)cc1` (stereo not drawn) [60c] the Kd [2] was 3630 nM and the Kd [1] was 29.5 nM.

Work on `O=C(NCCNCC(O)COc1ccc(OCCOC2CCCC2)cc1)c1ccccc1` (stereo not drawn) [62a] yielded a melting point of 149 to 152 °C, a Kd [2] of 1150 nM and a Kd [1] of 69.2 nM.

`Nc1ccccc1C(=O)NCCNCC(O)COc1ccc(OCCOC2CCCC2)cc1` (stereo not drawn) [62b] showed a melting point of 107 to 109 °C, a Kd [2] of 309 nM and a Kd [1] of 17.8 nM.

In the case of `Nc1cccc(C(=O)NCCNCC(O)COc2ccc(OCCOC3CCCC3)cc2)c1` (stereo not drawn) [62c], the melting point is reported as 105 to 107.5 °C, the Kd [2] is reported as 4470 nM and the Kd [1] is reported as 174 nM.

Work on `Nc1ccc(C(=O)NCCNCC(O)COc2ccc(OCCOC3CCCC3)cc2)cc1` (stereo not drawn) [62d] yielded a melting point of 67 to 69 °C, a Kd [2] of 5500 nM and a Kd [1] of 13.8 nM.

With `CC(=O)Oc1ccc(C(=O)NCCNCC(O)COc2ccc(OCCOC3CCCC3)cc2)cc1` (stereo not drawn) [62e, 4-(2-(3-(4-(2-(Cyclopentyloxy)ethoxy)phenoxy)-2-hydroxypropylamino)ethylcarbamoyl)phenyl acetate] the “Beta 2 Log KD” value [2] was −6.27 ± 0.03 and the “Beta 1 Log KD” value [1] was −8.42 ± 0.02.

`COc1cc(C(=O)NCCNCC(O)COc2ccc(OCCOC3CCCC3)cc2)ccc1O` (stereo not drawn) [62f] showed a Kd [2] of 1410 nM and a Kd [1] of 4.9 nM.

`O=C(Cc1ccccc1F)NCCNCC(O)COc1ccc(OCCOC2CCCC2)cc1` (stereo not drawn) [62g] showed a melting point of 122 to 124 °C, a Kd [2] of 97.7 nM and a Kd [1] of 2.4 nM.

In the case of `O=C(Cc1cccc(F)c1)NCCNCC(O)COc1ccc(OCCOC2CCCC2)cc1` (stereo not drawn) [62h], the melting point is reported as 116.5 to 118 °C, the Kd [2] is reported as 110 nM and the Kd [1] is reported as 6.76 nM.

With `Cc1cccc(CC(=O)NCCNCC(O)COc2ccc(OCCOC3CCCC3)cc2)c1` (stereo not drawn) [62q] the Kd [2] was 302 nM and the Kd [1] was 26.9 nM.

`COc1ccc(CC(=O)NCCNCC(O)COc2ccc(OCCOC3CCCC3)cc2)cc1` (stereo not drawn) [62t] gave a Kd [2] of 91.2 nM and a Kd [1] of 9.77 nM.

In the case of `O=C(Cc1ccccc1O)NCCNCC(O)COc1ccc(OCCOC2CCCC2)cc1` (stereo not drawn) [62u], the Kd [2] is reported as 138 nM and the Kd [1] is reported as 19.1 nM.

For `CC(=O)Oc1ccc(CC(=O)NCCNCC(O)COc2ccc(OCCOC3CCCC3)cc2)cc1` (stereo not drawn) [62w, 4-(2-(2-(3-(4-(2-(Cyclopentyloxy)ethoxy)phenoxy)-2-hydroxypropylamino)ethylamino)-2-oxoethyl)phenyl acetate], the “Beta 2 Log KD” value [2] was −6.59 ± 0.02 and the “Beta 1 Log KD” value [1] was −8.09 ± 0.03.

`OC(CNCCOc1cccc(Cl)c1)COc1ccc(OCCOC2CCCC2)cc1` (stereo not drawn) [65a] showed a Kd [2] of 776 nM and a Kd [1] of 74.1 nM.

Work on `OC(CNCCOc1ccccc1-c1ccccc1)COc1ccc(OCCOC2CCCC2)cc1` (stereo not drawn) [65c] yielded a Kd [2] of 741 nM and a Kd [1] of 107 nM.

In the case of `OC(CNCCOc1ccc(-c2ccccc2)cc1)COc1ccc(OCCOC2CCCC2)cc1` (stereo not drawn) [65d], the Kd [2] is reported as 79400 nM and the Kd [1] is reported as 398 nM.

With `Oc1ccc(OCCNCC(O)COc2ccc(OCCOC3CCCC3)cc2)cc1` (stereo not drawn) [65e] the Kd [2] was 204 nM and the Kd [1] was 5.75 nM.

Molecule `Oc1ccc(OCCCNCC(O)COc2ccc(OCCOC3CCCC3)cc2)cc1` (stereo not drawn) [65f] has a Kd [2] of 794 nM and a Kd [1] of 34.7 nM.

Molecule `NC(=O)c1ccccc1OCCNCC(O)COc1ccc(OCCOC2CCCC2)cc1` (stereo not drawn) [67a] has a Kd [2] of 1050 nM and a Kd [1] of 49 nM.

Molecule `NC(=O)c1cccc(OCCNCC(O)COc2ccc(OCCOC3CCCC3)cc2)c1` (stereo not drawn) [67b] has a Kd [2] of 1000 nM and a Kd [1] of 18.2 nM.

Molecule `NC(=O)c1ccc(OCCNCC(O)COc2ccc(OCCOC3CCCC3)cc2)cc1` (stereo not drawn) [67c] has a Kd [2] of 851 nM and a Kd [1] of 3.31 nM.

For `OC(CNCCOc1ccc(F)cc1)COc1ccc(OCCOC2CCCC2)cc1` (stereo not drawn) [67d], the Kd [2] was 1020 nM and the Kd [1] was 9.33 nM.

Work on `COc1ccc(OCCNCC(O)COc2ccc(OCCOC3CCCC3)cc2)cc1` (stereo not drawn) [67e] yielded a Kd [2] of 794 nM and a Kd [1] of 8.91 nM.

Molecule `O=C(NCCNC[C@@H](O)COc1ccc(OCCOC2CCCC2)cc1)Nc1cccc(Cl)c1` [(R)-47l, (R)-1-(2-(3-(4-(2-(Cyclopentyloxy)ethoxy)phenoxy)-2-hydroxypropylamino)ethyl)-3-(3-chlorophenyl)urea] has a Kd [2] of 5890 nM and a Kd [1] of 186 nM.

`O=C(NCCNC[C@H](O)COc1ccc(OCCOC2CCCC2)cc1)Nc1cccc(Cl)c1` [(S)-47l, (S)-1-(2-(3-(4-(2-(Cyclopentyloxy)ethoxy)phenoxy)-2-hydroxypropylamino)ethyl)-3-(3-chlorophenyl)urea] showed a Kd [2] of 1150 nM and a Kd [1] of 2.82 nM.

Molecule `NC(=O)c1cc(OCCNCC(O)COc2ccc(OCCOC3CCCC3)cc2)ccc1O` (stereo not drawn) [compound 72, 5-(2-(3-(4-(2-(Cyclopentyloxy)ethoxy)phenoxy)-2-hydroxypropylamino)ethoxy)-2-hydroxybenzamide] has a Kd [2] of 25.1 nM and a Kd [1] of 0.776 nM.
